Results reported in patent US5189157A, “Antibacterial cephalosporin compounds” (Hoffmann La Roche Inc., priority 1988, dated 1993).
Structures can show the parent of a compound that is named as a salt.

How the values were obtained:
Assay type in all cases: cell-based
P. aeruginosa 185/H = experiment: In Vitro MIC, Agar Dilution Method; conditions: Pseudomonas aeruginosa
From the text: (§1) The in vitro activity of the compounds of the present invention as measured by the Minimum Inhibitory Concentration in micrograms/ml utilizing the Agar Well Diffusion Method, Agar Dilution Method or Broth Dilution Method against a variety of Gram-positive and Gram-negative organisms, is as follows:
(§2) In Vitro MIC (μg/ml) Agar Dilution Method

S. aureus 1059B = experiment: In Vitro MIC, Agar Dilution Method; conditions: Staphylococcus aureus
From the text: as §1, §2

S. aureus Smith = experiment: In Vitro MIC, Agar Dilution Method; conditions: Staphylococcus aureus
From the text: as §1, §2

P. aeruginosa 130 = experiment: In Vitro MIC, Agar Dilution Method; conditions: Pseudomonas aeruginosa
From the text: as §1, §2

P. aureus Giorgid = experiment: In Vitro MIC, Agar Dilution Method
From the text: as §1, §2

E. coli 48 = experiment: In Vitro MIC, Agar Dilution Method; conditions: Escherichia coli
From the text: as §1, §2

E. cloacae 9570A = experiment: In Vitro MIC, Agar Dilution Method; conditions: Enterobacter cloacae
From the text: as §1, §2

S. marscescens SM = experiment: In Vitro MIC, Agar Dilution Method
From the text: as §1, §2

P. aeruginosa Stone 130 [1] = experiment: In Vitro MIC, Agar Dilution Method; conditions: Pseudomonas aeruginosa, STONE130
From the text: as §1, §2

E. cloaca P99 = experiment: In Vitro MIC, Agar Dilution Method
From the text: as §1, §2

S. aureus ATCC 25923 = experiment: In Vitro MIC, Agar Dilution Method; conditions: Staphylococcus aureus, ATCC25923
From the text: as §1, §2

K. pneumoniae A = experiment: In Vitro MIC, Agar Dilution Method; conditions: Klebsiella pneumoniae
From the text: as §1, §2

P. mirabilis 190 = experiment: In Vitro MIC, Agar Dilution Method; conditions: Proteus mirabilis
From the text: as §1, §2

P. aeruginosa 8710 = experiment: In Vitro MIC, Broth Dilution Method; conditions: Pseudomonas aeruginosa
From the text: as §1
(§3) In Vitro MIC (μg/ml) Broth Dilution Method

P. aeruginosa B = experiment: In Vitro MIC, Broth Dilution Method; conditions: Pseudomonas aeruginosa
P. aeruginosa 1973E = experiment: In Vitro MIC, Broth Dilution Method; conditions: Pseudomonas aeruginosa
From the text: as §1, §3

P. aeruginosa K77/61 = experiment: In Vitro MIC, Broth Dilution Method; conditions: Pseudomonas aeruginosa, K77/61, read-out: In Vitro MIC
From the text: as §1, §3

P. aeruginosa 5700 = experiment: In Vitro MIC, Broth Dilution Method; conditions: Pseudomonas aeruginosa
From the text: as §1, §3

P. aeruginosa 765 = experiment: In Vitro MIC, Broth Dilution Method; conditions: Pseudomonas aeruginosa
From the text: as §1, §3

P. aeruginosa 8780 = experiment: In Vitro MIC, Broth Dilution Method; conditions: Pseudomonas aeruginosa, 8780, read-out: In Vitro MIC
P. aeruginosa 6148B = experiment: In Vitro MIC, Broth Dilution Method; conditions: Pseudomonas aeruginosa
P. aeruginosa Stone 130 [2] = experiment: In Vitro MIC, Broth Dilution Method; conditions: Pseudomonas aeruginosa, STONE130
P. aeruginosa K77/WT = experiment: In Vitro MIC, Broth Dilution Method; conditions: Pseudomonas aeruginosa
From the text: as §1, §3

P. aeruginosa 503-56 = experiment: In Vitro MIC, Broth Dilution Method; conditions: Pseudomonas aeruginosa, 50356
From the text: as §1, §3

P. aeruginosa ATCC 27853 = experiment: In Vitro MIC, Broth Dilution Method; conditions: Pseudomonas aeruginosa, ATCC27853

Q: For `CC(=O)Oc1ccc(C(=O)OCC2=C(C(=O)O)N3C(=O)[C@@H](NC(=O)/C(=N\OCC(N)=O)c4csc(N)n4)[C@H]3SC2)cc1OC(C)=O` [Compound B, [6R-[6 alpha,7 beta(Z)]]-3-[[[3,4-bis(acetyloxy)benzoyl]oxy]methyl]-7-[[[2-amino-4-thiazolyl][(2-amino-2-oxoethoxy)imino]acetyl]amino]-8-oxo-5-thia-1-azabicyclo[4.2.0]oct-2-ene-2-carboxylic acid monosodium salt], which MIC (P. aeruginosa 185/H) is on record?
A: The MIC was 2 µg/mL.

Q: And the MIC (S. aureus 1059B)?
A: The MIC was 4 µg/mL.

Q: And the MIC (S. aureus Smith)?
A: The MIC was 4 µg/mL.

Q: And the MIC (P. aeruginosa 130)?
A: Its MIC is 4 µg/mL.

Q: What about the MIC (P. aureus Giorgid) of the same compound?
A: Its MIC is 8 µg/mL.

Q: What about the MIC (E. coli 48) of the same compound?
A: Its MIC is 0.031 µg/mL.

Q: What about the MIC (E. cloacae 9570A) of the same compound?
A: The MIC was 1 µg/mL.

Q: And the MIC (S. marscescens SM)?
A: Its MIC is 1 µg/mL.

Q: What about the MIC (P. aeruginosa Stone 130 [1]) of the same compound?
A: The MIC was 4 µg/mL.

Q: And the MIC (E. cloaca P99)?
A: Its MIC is 32 µg/mL.

Q: What about the MIC (S. aureus ATCC 25923) of the same compound?
A: Its MIC is 2 µg/mL.

Q: What about the MIC (K. pneumoniae A) of the same compound?
A: Its MIC is 0.125 µg/mL.

Q: And the MIC (P. mirabilis 190)?
A: The MIC was 0.063 µg/mL.

Q: `CCN1CCN(C(=O)N[C@@H](C(=O)N[C@@H]2C(=O)N3C(C(=O)O)=C(COC(=O)c4ccc(O)c(O)c4)CS[C@H]23)c2ccccc2)C(=O)C1=O` [Compound D, [6R-[6 alpha,7 beta(R*)]]-7-[[[[(4-ethyl-2,4-dioxo-1-piperazinyl)carbonyl]amino]phenylacetyl]amino]-3-[[(3,4-dihydroxy)benzoyl]oxy]-methyl]-8-oxo-5-thia-1-azabicyclo(4.2.0)oct-2-ene-2-carboxylic acid monosodium salt] was tested. Which MIC (P. aeruginosa 8710) did it give?
A: The MIC was 0.125 µg/mL.

Q: With `CC(C)(O/N=C(\C(=O)N[C@@H]1C(=O)N2C(C(=O)O)=C(COC(=O)c3ccc(O)c(O)c3)CS[C@H]12)c1csc(N)n1)C(=O)O` [Compound C, [6R-[6 alpha,7 beta(Z)]]-7-[[(2-amino-4-thiazolyl)(1-carboxy-1-methylethoxy)-imino]acetyl]amino]-3-[[(3,4-dihydroxybenzoyl)oxy]methyl]-8-oxo-5-thia-1-azabicyclo[4.2.0]oct-2-ene-2-carboxylic acid disodium salt] as the compound, how does the MIC (P. aeruginosa B) read?
A: The MIC was 0.125 µg/mL.

Q: What about the MIC (P. aeruginosa 1973E) of the same compound?
A: Its MIC is 2 µg/mL.

Q: And the MIC (P. aeruginosa K77/61)?
A: The MIC was > 0.008 µg/mL.

Q: And the MIC (P. aeruginosa 5700)?
A: The MIC was 2 µg/mL.

Q: What about the MIC (P. aeruginosa 8710) of the same compound?
A: The MIC was 0.063 µg/mL.

Q: What about the MIC (P. aeruginosa 765) of the same compound?
A: The MIC was 8 µg/mL.

Q: What about the MIC (P. aeruginosa 8780) of the same compound?
A: The MIC was > 0.008 µg/mL.

Q: `CO/N=C(\C(=O)N[C@@H]1C(=O)N2C(C(=O)O)=C(COC(=O)c3ccc(O)c(O)c3)CS[C@H]12)c1csc(N)n1` [Compound A, [6R-[6 alpha,7 beta(Z)]]-7-[[(2-amino-4-thiazolyl)(methoxyimino)acetyl]amino]-3-[[[(3,4-dihydroxyphenyl)carbonyl]oxy]methyl]-8-oxo-5-thia-1-azabicyclo[4.2.0]oct-2-ene-2-carboxylic acid monosodium salt] was tested. Which MIC (P. aeruginosa B) did it give?
A: Its MIC is 2 µg/mL.

Q: What about the MIC (P. aeruginosa 6148B) of the same compound?
A: Its MIC is 2 µg/mL.

Q: And the MIC (P. aeruginosa Stone 130 [2])?
A: Its MIC is 2 µg/mL.

Q: And the MIC (P. aeruginosa 1973E)?
A: Its MIC is 4 µg/mL.

Q: And the MIC (P. aeruginosa K77/WT)?
A: The MIC was 1 µg/mL.

Q: And the MIC (P. aeruginosa 5700)?
A: The MIC was 8 µg/mL.

Q: And the MIC (P. aeruginosa 8710)?
A: The MIC was 2 µg/mL.

Q: And the MIC (P. aeruginosa 503-56)?
A: The MIC was 4 µg/mL.

Q: And the MIC (P. aeruginosa 765)?
A: The MIC was 4 µg/mL.

Q: And the MIC (P. aeruginosa 8780)?
A: The MIC was 0.5 µg/mL.

Q: What about the MIC (P. aeruginosa ATCC 27853) of the same compound?
A: Its MIC is 8 µg/mL.
